According to ChEMBL document CHEMBL4342418, “1,2,3-Triazole-containing hybrids as potential anticancer agents: Current developments, action mechanisms and structure-activity relationships” (Eur J Med Chem, 2019):

Tests used:
Assay type in all cases: functional, cell-based
[1] = tested on: K562; test: Antiproliferative activity against human K562 cells assessed as reduction in cell viability after 24 hrs by MTT assay; conditions: K562, 24 h
[2] = tested on: PC-3; test: Antiproliferative activity against human PC3 cells assessed as reduction in cell viability after 24 hrs by MTT assay; conditions: PC-3, 24 h
[3] = tested on: A-431; test: Antiproliferative activity against human A431 cells assessed as reduction in cell viability after 24 hrs by MTT assay; conditions: A-431, 24 h
[4] = tested on: MDA-MB-231; test: Antiproliferative activity against human MDA-MB-231 cells assessed as reduction in cell viability after 24 hrs by MTT assay; conditions: MDA-MB-231, 24 h
[5] = tested on: COLO 205; test: Antiproliferative activity against human COLO205 cells assessed as reduction in cell viability after 24 hrs by MTT assay; conditions: COLO 205, 24 h
[6] = tested on: A549; test: Antiproliferative activity against human A549 cells assessed as reduction in cell viability after 24 hrs by MTT assay; conditions: A549, 24 h
[7] = tested on: MCF7; test: cells; conditions: Homo sapiens
Description: Antiproliferative activity against human MCF7 cells by MTT assay

[8] = tested on: Lu1; test: Antiproliferative activity against human Lu1 cells by MTT assay
[9] = tested on: HL-60; test: Antiproliferative activity against human HL60 cells by MTT assay
[10] = tested on: P388; test: Antiproliferative activity against mouse P388 cells by MTT assay
[11] = tested on: HeLa; test: Antiproliferative activity against human HeLa cells by MTT assay
[12] = tested on: A549; test: cells; conditions: Homo sapiens
Description: Antiproliferative activity against human A549 cells by MTT assay

Compound C[C@H]1[C@@H](OCc2cn(-c3ccc([N+](=O)[O-])cc3)nn2)O[C@@H]2O[C@@]3(C)CC[C@H]4[C@H](C)CC[C@@H]1[C@@]24OO3 has an IC50 [1] of 4.06 to 89.9 µM, an IC50 [2] of 4.06 to 89.9 µM and an IC50 [3] of 4.06 to 89.9 µM. The IC50 [4] was 4.06 to 89.9 µM, the IC50 [5] was 4.06 to 89.9 µM and the IC50 [6] was 4.06 to 89.9 µM.
CCN(CC)C(=O)c1cccc(-n2cc(CO[C@H]3O[C@@H]4O[C@@]5(C)CC[C@H]6[C@H](C)CC[C@@H]([C@H]3C)[C@@]46OO5)nn2)c1 was tested, and the IC50 [7] was 2.5 to 176 µM, the IC50 [8] was 2.5 to 176 µM and the IC50 [9] was 2.5 to 176 µM. The IC50 [10] was 2.5 to 176 µM.
For C[C@@H]1CC[C@H]2C[C@@H](OCc3cn(-c4ccnc5cc(Cl)ccc45)nn3)O[C@@H]3O[C@@]4(C)CC[C@@H]1[C@@]23OO4, the IC50 [7] was 5.7 to 19.5 µM, the IC50 [8] was 5.7 to 19.5 µM and the IC50 [9] was 5.7 to 19.5 µM. For the same compound, the IC50 [10] was 5.7 to 19.5 µM.
For COc1ccc(-c2ccc3c(c2)OCC(=O)N3Cc2cn(-c3cc(Cl)cc(Cl)c3)nn2)cc1, the IC50 [7] was 21.8 µM and the IC50 [11] was 19.5 µM.
C[C@H]1[C@@H](OCc2cn(-c3ccc(C(=O)N4CCCCC4)cc3)nn2)O[C@@H]2O[C@@]3(C)CC[C@H]4[C@H](C)CC[C@@H]1[C@@]24OO3 gave an IC50 [7] of 2.5 to 176 µM, an IC50 [8] of 2.5 to 176 µM and an IC50 [9] of 2.5 to 176 µM. For the same compound, the IC50 [10] was 2.5 to 176 µM.
For CCN1CCN(C(=O)c2cccc(-n3cc(CO[C@H]4O[C@@H]5O[C@@]6(C)CC[C@H]7[C@H](C)CC[C@@H]([C@H]4C)[C@@]57OO6)nn3)c2)CC1, the IC50 [7] was 2.5 to 176 µM, the IC50 [8] was 2.5 to 176 µM and the IC50 [9] was 2.5 to 176 µM. For the same compound, the IC50 [10] was 2.5 to 176 µM.
With CCC1(CCn2cc(COc3ccc(C)cc3)nn2)OCCc2c1[nH]c1ccccc21 (configuration not stated) the IC50 [12] was 3.65 µM.
C[C@H]1[C@@H](OCc2cn(-c3cccc(C(=O)N4CCCC4)c3)nn2)O[C@@H]2O[C@@]3(C)CC[C@H]4[C@H](C)CC[C@@H]1[C@@]24OO3 showed an IC50 [7] of 2.5 to 176 µM, an IC50 [8] of 2.5 to 176 µM and an IC50 [9] of 2.5 to 176 µM. The IC50 [10] was 2.5 to 176 µM.
C[C@H]1[C@@H](OCc2cn(-c3ccc(O)cc3)nn2)O[C@@H]2O[C@@]3(C)CC[C@H]4[C@H](C)CC[C@@H]1[C@@]24OO3 showed an IC50 [1] of 4.06 to 36.6 µM, an IC50 [2] of 4.06 to 36.6 µM and an IC50 [3] of 4.06 to 36.6 µM. For the same compound, the IC50 [4] was 4.06 to 36.6 µM, the IC50 [5] was 4.06 to 36.6 µM and the IC50 [6] was 4.06 to 36.6 µM.
Compound C[C@H]1[C@@H](OCc2cn(-c3ccc(C(=O)N4CCN(c5ccccc5)CC4)cc3)nn2)O[C@@H]2O[C@@]3(C)CC[C@H]4[C@H](C)CC[C@@H]1[C@@]24OO3 has an IC50 [7] of 2.5 to 176 µM, an IC50 [8] of 2.5 to 176 µM and an IC50 [9] of 2.5 to 176 µM. It also gave an IC50 [10] of 2.5 to 176 µM.
COc1cc(-c2ccccc2Cl)cc(-c2nnn(Cc3ccccc3)c2C)n1 showed an IC50 [2] of 28.2 µg/mL, an IC50 [4] of 42.3 µg/mL and an IC50 [6] of 42.6 µg/mL.
In the case of CCC1(CCn2cc(COc3ccccc3)nn2)OCCc2c1[nH]c1ccccc21 (configuration not stated), the IC50 [12] is reported as 3.29 µM.
Work on CC(=O)c1ccccc1-n1cc(CO[C@H]2O[C@@H]3O[C@@]4(C)O[C@]35[C@@H](CC[C@@H](C)[C@@H]5C[C@H]4O)[C@H]2C)nn1 yielded an IC50 [1] of 4.06 to 89.9 µM, an IC50 [2] of 4.06 to 89.9 µM and an IC50 [3] of 4.06 to 89.9 µM. For the same compound, the IC50 [4] was 4.06 to 89.9 µM, the IC50 [5] was 4.06 to 89.9 µM and the IC50 [6] was 4.06 to 89.9 µM.
CC1CCCCN1C(=O)c1ccc(-n2cc(CO[C@H]3O[C@@H]4O[C@@]5(C)CC[C@H]6[C@H](C)CC[C@@H]([C@H]3C)[C@@]46OO5)nn2)cc1 (some centres not stated) was tested, and the IC50 [7] was 2.5 to 176 µM, the IC50 [8] was 2.5 to 176 µM and the IC50 [9] was 2.5 to 176 µM. For the same compound, the IC50 [10] was 2.5 to 176 µM.
With COc1ccc(-n2cc(CO[C@H]3O[C@@H]4O[C@@]5(C)CC[C@H]6[C@H](C)CC[C@@H]([C@H]3C)[C@@]46OO5)nn2)cc1 the IC50 [1] was 4.06 to 89.9 µM, the IC50 [2] was 4.06 to 89.9 µM and the IC50 [3] was 4.06 to 89.9 µM. For the same compound, the IC50 [4] was 4.06 to 89.9 µM, the IC50 [5] was 4.06 to 89.9 µM and the IC50 [6] was 4.06 to 89.9 µM.
CC[C@H]1OC(=O)[C@H](C)[C@@H](O[C@H]2C[C@@](C)(OC)[C@@](C)(CN(C)Cc3ccc(-c4cn(CCCCCCC(=O)NO)nn4)cc3)[C@H](C)O2)[C@H](C)[C@@H](O)[C@](C)(OC)C[C@@H](C)C(=O)[C@H](C)[C@@H](O)[C@]1(C)O gave an IC50 [7] of 0.69 µM and an IC50 [12] of 0.99 µM.
Compound C[C@H]1[C@@H](OCc2cn(-c3ccc(C(=O)N4CCN(C)CC4)cc3)nn2)O[C@@H]2O[C@@]3(C)CC[C@H]4[C@H](C)CC[C@@H]1[C@@]24OO3 has an IC50 [7] of 2.5 to 176 µM, an IC50 [8] of 2.5 to 176 µM and an IC50 [9] of 2.5 to 176 µM. It also gave an IC50 [10] of 2.5 to 176 µM.
For CO[C@H]1C[C@@H]2CC[C@@H](C)[C@@](O)(O2)C(=O)C(=O)N2CCCC[C@H]2C(=O)O[C@H]([C@H](C)C[C@@H]2CC[C@@H](O)[C@H](OC)C2)CC(=O)[C@H](C)/C=C(\C)[C@@H](O)[C@@H](OC)C(=O)[C@H](C)C[C@H](C)/C=C/C=C/C=C/1C [SIROLIMUS], the IC50 [7] was 18.7 to 35.1 µM and the IC50 [12] was 18.7 to 35.1 µM.
